Consider four compounds from article PMC11578313, “Miniaturized Modular Click Chemistry‐enabled Rapid Discovery of Unique SARS‐CoV‐2 M^pro Inhibitors With Robust Potency and Drug‐like Profile” (Advanced Science, 2024).

Read-outs that look alike come from different tables or passages of the source.

For experiment [1], the system named is rgSARS‐CoV‐2‐M^pro/L50F+E166V. Format: cell-based, SARS‐CoV‐2. Particulars: read-out: EC50 ± SD, rgSARS‐CoV‐2‐M^pro/L50F+E166V.
Another experiment has as its system Wild‐type rgSARS‐CoV‐2. Kind of experiment: microbe, parasite or virus in culture. Format: cell-based, SARS‐CoV‐2.
Experiment [2] deals with rgSARS‐CoV‐2‐M^pro/T21I+E166V. In kind it is cell-based, SARS‐CoV‐2. Particulars: read-out: EC50 ± SD, rgSARS‐CoV‐2‐M^pro/T21I +E166V.
Experiment [3] has as its system SARS‐CoV‐2 (hCoV‐19/Korea/KCDC06/2020, wild type). Briefly: microbe, parasite or virus in culture. In kind it is cell-based.
Setting [4] is: Severe acute respiratory syndrome coronavirus 2, Calu-3; read-out: EC50 ± SD, Wild‐type rgSARS‐CoV‐2.

As for `Cc1cncc(C(=O)N2C[C@H]3CC[C@@H](C2)N3C(c2cccc(F)c2)c2cccc(F)c2)c1` [AA‐625, reference compound], the EC50 in experiment [1] is 5710 ± 664 nM; with Wild‐type rgSARS‐CoV‐2 (setting [4]), 779 ± 173 nM; in experiment [2], 3410 ± 821 nM.

With `Cc1cncc(C(=O)N2C[C@H]3CC[C@@H](C2)N3[C@H](c2cccc(F)c2)c2cn(CCc3ccsc3)nn2)c1` [Compound C5N17B], the EC50 in experiment [3] (Severe acute respiratory syndrome coronavirus 2, Calu-3, Gamma, Delta, and Omicron, read-out: EC50 against several SARS‐CoV‐2 variants) is 130 to 260 nM; in experiment [3] (Severe acute respiratory syndrome coronavirus 2, wild‐type, gamma, delta, and omicron, Calu‐3, read-out: EC50 against the original strain and its circulating variants) it was 119 to 260 nM; in experiment [1], 150 ± 19 nM; in the experiment on Wild‐type rgSARS‐CoV‐2 (setting [4]), below 46 nM; in experiment [2] it was 260 ± 29 nM.

As to `Cc1cncc(C(=O)N2C[C@H]3CC[C@@H](C2)N3C(c2cccc(F)c2)c2cn(CCc3ccsc3)nn2)c1` (some centres unmarked) [Compound C5N17], the results for the EC50 (in experiment [1]; with Wild‐type rgSARS‐CoV‐2 (setting [4]); in experiment [2]) were 966 ± 40 nM, 441 ± 32 nM and 1470 ± 123 nM, respectively.

Consider `CC(C)(C)[C@H](NC(=O)C(F)(F)F)C(=O)N1C[C@H]2[C@@H]([C@H]1C(=O)N[C@H](C#N)C[C@@H]1CCNC1=O)C2(C)C` [Nirmatrelvir, reference compound], for which the EC50 is above 100000 nM in experiment [1]; 2770 ± 33 nM in the experiment on Wild‐type rgSARS‐CoV‐2 (Severe acute respiratory syndrome coronavirus 2, Calu-3, read-out: EC50 ± SD, Wild‐type rgSARS‐CoV‐2); above 100000 nM in experiment [2].
